Format in all cases: cell-based
The target of one assay is human GcgR (Homo sapiens, UniProt P47871). The assay can be described thus: Functional cAMP activity in the presence of 1% HSA. The settings on record: read-out: cAMP Rel EC50, hGcgR.
The target of assay [1] is T1, hGLP-1R (Homo sapiens, UniProt P43220). The experiment in a line: Functional cAMP activity in the presence of 1% HSA. The settings on record: read-out: cAMP Rel EC50, hGLP-1R.
Assay [2] deals with T2, hGIPR (Homo sapiens, UniProt P48546).
T2 sequence (P48546 22-466): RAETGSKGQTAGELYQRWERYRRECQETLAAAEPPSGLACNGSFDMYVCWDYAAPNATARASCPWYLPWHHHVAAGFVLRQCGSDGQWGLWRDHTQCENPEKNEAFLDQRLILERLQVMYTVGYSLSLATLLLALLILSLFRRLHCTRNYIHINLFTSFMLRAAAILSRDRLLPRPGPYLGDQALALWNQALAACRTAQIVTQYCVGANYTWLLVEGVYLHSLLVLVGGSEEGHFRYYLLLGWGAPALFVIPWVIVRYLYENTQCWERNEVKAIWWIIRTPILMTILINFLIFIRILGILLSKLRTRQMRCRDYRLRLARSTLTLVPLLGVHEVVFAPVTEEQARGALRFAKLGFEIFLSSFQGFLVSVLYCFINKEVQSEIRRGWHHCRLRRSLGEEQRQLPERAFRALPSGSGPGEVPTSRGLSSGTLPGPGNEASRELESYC
The experiment in a line: Functional cAMP activation in the presence of 0.1% casein (no HSA). The settings on record: read-out: Relative cAMP EC50, hGIPR.

The target in assay [3] is T2, hGIPR. The experiment in a line: Functional cAMP activity in the presence of 1% HSA. The settings on record: read-out: cAMP Rel EC50, hGIPR.
The target in a further assay is hGcgR (Homo sapiens, UniProt P47871). The assay can be described thus: Functional cAMP activation in the presence of 0.1% casein (no HSA). The settings on record: read-out: Relative cAMP EC50, hGcgR.
Sequence of hGcgR (P47871 26-477): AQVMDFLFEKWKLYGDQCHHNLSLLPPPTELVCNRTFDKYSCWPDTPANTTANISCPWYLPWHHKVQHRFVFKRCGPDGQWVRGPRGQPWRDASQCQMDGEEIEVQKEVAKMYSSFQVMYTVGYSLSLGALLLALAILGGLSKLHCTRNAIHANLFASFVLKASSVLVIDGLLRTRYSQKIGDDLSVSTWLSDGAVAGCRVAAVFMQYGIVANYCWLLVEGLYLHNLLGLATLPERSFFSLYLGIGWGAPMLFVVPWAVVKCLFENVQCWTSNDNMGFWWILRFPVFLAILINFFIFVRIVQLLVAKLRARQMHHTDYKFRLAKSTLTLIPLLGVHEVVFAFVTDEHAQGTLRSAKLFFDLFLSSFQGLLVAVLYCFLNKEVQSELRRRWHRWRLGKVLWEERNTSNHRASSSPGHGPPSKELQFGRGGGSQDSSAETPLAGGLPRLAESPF
Assay [4] concerns the target T1, hGLP-1R. The assay is described as above. The settings on record: read-out: Relative cAMP EC50, hGLP-1R.
Where [5] appears, read: in the presence of 0.1% casein (no HSA), geometric mean.

Where two headings read alike, the source gives them in different places. Starred links: 1 amine or outer side, 2 acyl side, 3 side chain; linkers in the order of their positions; H or OH if unused. Non-standard residues stand in square brackets, D forms with d. Groups on a side chain read outwards from the residue. *: point of attachment. C18 diacid = O=C(O)CCCCCCCCCCCCCCCCC(=O)*; αMePhe(2-F) = C[C@](N)(Cc1ccccc1F)C(=O)O; γGlu = O=C(O)[C@H](CCC(=O)[*:2])N[*:1]; αMe4Pal = C[C@](N)(Cc1ccncc1)C(=O)O; αMeY = C[C@](N)(Cc1ccc(O)cc1)C(=O)O; 4Pal = N[C@@H](Cc1ccncc1)C(=O)O; αMeL = CC(C)C[C@](C)(N)C(=O)O; αMeS = C[C@](N)(CO)C(=O)O; Orn = NCCC[C@H](N)C(=O)O; AEEA = NCCOCCOCC(=O)O; Aib = CC(C)(N)C(=O)O
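Throughout, for Relative cAMP EC50, hGIPR: intracellular cAMP rise after 30 min at 37 °C read by HTRF against a standard curve, scaled between buffer alone (0%) and top control ligand concentration (100%), four-parameter fit.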
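Throughout, for Relative cAMP EC50, hGLP-1R: intracellular cAMP rise after 30 min at 37 °C read by HTRF, normalized between buffer only (0%) and maximal control ligand (100%), four-parameter variable-slope fit.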
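Throughout, for Relative cAMP EC50, hGcgR: intracellular cAMP rise after 30 min at 37 °C, read by HTRF against a cAMP standard curve, scaled from buffer only (0%) to maximal control ligand response (100%).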

Sequence of human GcgR (P47871 26-477): as above
T1 sequence (P43220 24-463): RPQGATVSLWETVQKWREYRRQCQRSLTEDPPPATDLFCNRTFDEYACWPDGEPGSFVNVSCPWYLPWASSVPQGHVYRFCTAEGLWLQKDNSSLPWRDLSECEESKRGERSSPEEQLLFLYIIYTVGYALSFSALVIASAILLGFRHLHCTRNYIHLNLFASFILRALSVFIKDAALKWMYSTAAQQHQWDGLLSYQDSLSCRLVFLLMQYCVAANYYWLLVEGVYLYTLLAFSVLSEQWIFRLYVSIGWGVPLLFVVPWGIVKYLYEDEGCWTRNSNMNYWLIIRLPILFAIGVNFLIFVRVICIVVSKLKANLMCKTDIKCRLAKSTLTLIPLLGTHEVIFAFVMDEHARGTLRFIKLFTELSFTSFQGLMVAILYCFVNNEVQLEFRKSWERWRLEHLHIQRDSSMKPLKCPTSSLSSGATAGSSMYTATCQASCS

Turning to `CC[C@H](C)[C@H](NC(=O)[C@H](Cc1ccccc1)NC(=O)[C@H](C)NC(=O)C(C)(C)NC(=O)[C@H](CCC(N)=O)NC(=O)[C@H](C)NC(=O)[C@H](CCCCNC(=O)COCCOCCNC(=O)CC[C@H](NC(=O)CCCCCCCCCCCCCCCCC(=O)O)C(=O)O)NC(=O)[C@H](CCCCN)NC(=O)[C@H](CC(=O)O)NC(=O)[C@H](CC(C)C)NC(=O)[C@](C)(CC(C)C)NC(=O)[C@H](CCC(N)=O)NC(=O)[C@H](CO)NC(=O)[C@H](Cc1ccncc1)NC(=O)[C@H](CC(=O)O)NC(=O)[C@H](CO)NC(=O)[C@@H](NC(=O)[C@H](Cc1ccccc1)NC(=O)[C@@H](NC(=O)CNC(=O)[C@H](CCC(N)=O)NC(=O)C(C)(C)NC(=O)[C@@H](N)Cc1ccc(O)cc1)[C@@H](C)O)[C@@H](C)O)C(=O)N[C@@H](CCC(=O)O)C(=O)N[C@@H](Cc1ccc(O)cc1)C(=O)N[C@@H](CC(C)C)C(=O)N[C@@H](CC(C)C)C(=O)N[C@@H](CCC(=O)O)C(=O)N[C@H](C)C(=O)NCC(=O)N1CCC[C@H]1C(=O)N[C@@H](CO)C(=O)N[C@@H](CO)C(=O)NCC(=O)N[C@@H](C)C(=O)N1CCC[C@H]1C(=O)N1CCC[C@H]1C(=O)N1CCC[C@H]1C(=O)N[C@@H](CO)C(=O)NCC(=O)N[C@H](C(N)=O)[C@@H](C)O` [Example 821], the EC50 was 989 nM on human GcgR; 362 nM at hGLP-1R [1]; 0.152 nM on hGIPR [2] (setting [5]); 26.1 nM at hGIPR [3]; 6.74 nM at hGcgR (setting [5]); 2.79 nM on hGLP-1R [4] (setting [5]).

For “H-Y[Aib]QGT[αMePhe(2-F)]TSD[4Pal]SILLDKK([γGlu-γGlu-C18 diacid])AQ[Aib]AFIEYLEEGGPSSGEPPPSGTEE-NH2 [Example 608]”, the EC50 on human GcgR worked out at 669 nM; at hGLP-1R [1], 201 nM; on hGIPR [2], 0.124 nM; at hGIPR [3] it was 8.51 nM; on hGcgR, 7.82 nM; at hGLP-1R [4], 1.87 nM.

Turning to “H-Y[Aib]QGTFTSDFS[Orn][αMeL]LDKK([AEEA-γGlu-C18 diacid])AQ[Aib]AFIEYLLEGGPSSGAPPPGGSG-NH2 [Example 64]”, the concentration for a half-maximal effect (EC50) at human GcgR worked out at 626 nM; at hGLP-1R [1], 397 nM; at hGIPR [2] (setting [5]), 0.309 nM; at hGIPR [3], 24.9 nM; on hGcgR (setting [5]), 4.94 nM; on hGLP-1R [4] (setting [5]), 4.08 nM.

“H-Y[Aib]QGT[αMePhe(2-F)]TSD[4Pal][αMeS]I[αMeL]LD[Orn]K([γGlu-γGlu-C18 diacid])AQ[Aib][Orn]FI[dE][αMeY]LSEGGPSSGEPPPSGAEE-NH2 [Example 567]”: the EC50 on human GcgR stood at 521 nM; on hGLP-1R [1] it was 102 nM; on hGIPR [2] it was 0.165 nM; on hGIPR [3], 13.4 nM; on hGcgR it was 5.89 nM; at hGLP-1R [4] it was 1.07 nM.

For “H-Y[Aib]QGT[αMePhe(2-F)]TSD[4Pal]SI[αMeL]LD[Orn]K([AEEA-γGlu-C18 diacid])AQ[Aib][Orn]FIEYLLEGGPSSGEPPPEEG-NH2 [Example 494]”, the concentration for a half-maximal effect (EC50) on human GcgR amounted to 333 nM; at hGLP-1R [1], 19.9 nM; at hGIPR [2], 0.014 nM; on hGIPR [3] it was 1.08 nM; on hGcgR, 1.26 nM; on hGLP-1R [4], 0.211 nM.

For the compound “H-Y[Aib]QGTFTSD[4Pal]SQ[αMeL]LD[Orn]K([γGlu-γGlu-C18 diacid])AQ[αMe4Pal]AFIEYLIE[dA]GPSSGAPPPSGS-NH2 [Example 1017]”, the EC50 on human GcgR worked out at 649 nM; at hGLP-1R [1], 118 nM; at hGIPR [2] (setting [5]), 0.228 nM; on hGIPR [3], 28.3 nM; at hGcgR (setting [5]), 6.47 nM; at hGLP-1R [4] (setting [5]), 1.16 nM.

For the compound “H-Y[Aib]QGT[αMePhe(2-F)]TSD[4Pal]SILLDKK([γGlu-γGlu-C18 diacid])AQ[Aib]AFIEYLEEGGPSSGAPPPSGSEE-NH2 [Example 610]”, the EC50 was 536 nM at human GcgR; 130 nM at hGLP-1R [1]; 0.133 nM at hGIPR [2]; 7.02 nM on hGIPR [3]; 5.75 nM on hGcgR; 1.66 nM on hGLP-1R [4].

On to `CC[C@H](C)[C@H](NC(=O)[C@H](Cc1ccccc1)NC(=O)[C@H](CCCN)NC(=O)C(C)(C)NC(=O)[C@H](CCC(N)=O)NC(=O)[C@H](C)NC(=O)[C@H](CCCCNC(=O)[C@@H](CCC(=O)O)NC(=O)CC[C@H](NC(=O)CCCCCCCCCCCCCCCCC(=O)O)C(=O)O)NC(=O)[C@H](CCCN)NC(=O)[C@H](CC(=O)O)NC(=O)[C@H](CC(C)C)NC(=O)[C@](C)(CC(C)C)NC(=O)[C@@H](NC(=O)[C@](C)(CO)NC(=O)[C@H](Cc1ccncc1)NC(=O)[C@H](CC(=O)O)NC(=O)[C@H](CO)NC(=O)[C@@H](NC(=O)[C@](C)(Cc1ccccc1F)NC(=O)[C@@H](NC(=O)CNC(=O)[C@H](CCC(N)=O)NC(=O)C(C)(C)NC(=O)[C@@H](N)Cc1ccc(O)cc1)[C@@H](C)O)[C@@H](C)O)[C@@H](C)CC)C(=O)N[C@H](CCC(=O)O)C(=O)N[C@@](C)(Cc1ccc(O)cc1)C(=O)N[C@@H](CC(C)C)C(=O)N[C@@H](CCC(N)=O)C(=O)N[C@@H](CCC(=O)O)C(=O)NCC(=O)NCC(=O)N1CCC[C@H]1C(=O)N[C@@H](CO)C(=O)N[C@@H](CO)C(=O)NCC(=O)N[C@@H](CCC(=O)O)C(=O)N1CCC[C@H]1C(=O)N1CCC[C@H]1C(=O)N1CCC[C@H]1C(=O)N[C@@H](CCC(=O)O)C(=O)NCC(=O)N[C@H](C(=O)N[C@@H](CCC(=O)O)C(=O)N[C@@H](CCC(=O)O)C(=O)N[C@@H](CCC(=O)O)C(N)=O)[C@@H](C)O` [Example 596], for which the half-maximal effective concentration (EC50) was found to be 385 nM on human GcgR; 36.6 nM on hGLP-1R [1]; 0.0455 nM on hGIPR [2]; 1.98 nM at hGIPR [3]; 5.71 nM on hGcgR; 0.592 nM at hGLP-1R [4].

`CC[C@H](C)[C@H](NC(=O)[C@H](CC(C)C)NC(=O)[C@H](Cc1ccc(O)cc1)NC(=O)[C@H](CCC(=O)O)NC(=O)[C@@H](NC(=O)[C@H](Cc1ccccc1)NC(=O)[C@H](C)NC(=O)[C@](C)(Cc1ccncc1)NC(=O)[C@H](CCC(N)=O)NC(=O)[C@H](C)NC(=O)[C@H](CCCCNC(=O)COCCOCCNC(=O)CC[C@H](NC(=O)CC[C@H](NC(=O)CCCCCCCCCCCCCCCCC(=O)O)C(=O)O)C(=O)O)NC(=O)[C@H](CCCCN)NC(=O)[C@H](CC(=O)O)NC(=O)[C@H](CC(C)C)NC(=O)[C@](C)(CC(C)C)NC(=O)[C@H](CCC(N)=O)NC(=O)[C@H](CO)NC(=O)[C@H](Cc1ccncc1)NC(=O)[C@H](CC(=O)O)NC(=O)[C@H](CO)NC(=O)[C@@H](NC(=O)[C@H](Cc1ccccc1)NC(=O)[C@@H](NC(=O)CNC(=O)[C@H](CCC(N)=O)NC(=O)C(C)(C)NC(=O)[C@@H](N)Cc1ccc(O)cc1)[C@@H](C)O)[C@@H](C)O)[C@@H](C)CC)C(=O)N[C@@H](C)C(=O)NCC(=O)NCC(=O)N1CCC[C@H]1C(=O)N[C@@H](CO)C(=O)N[C@@H](CO)C(=O)NCC(=O)N[C@@H](C)C(=O)N1CCC[C@H]1C(=O)N1CCC[C@H]1C(=O)N1CCC[C@H]1C(=O)N[C@@H](CO)C(=O)NCC(=O)N[C@@H](CO)C(N)=O` [Example 869]: the half-maximal effective concentration (EC50) was 571 nM on human GcgR; 114 nM at hGLP-1R [1]; 0.142 nM at hGIPR [2] (setting [5]); 14.1 nM at hGIPR [3]; 9.94 nM at hGcgR (setting [5]); 2 nM at hGLP-1R [4] (setting [5]).

Turning to “H-Y[Aib]QGT[αMePhe(2-F)]TSDYSILLDKK([AEEA-γGlu-C18 diacid])AQ[Aib]AFIE[4Pal]LEEGGPSSGAPPPSEG-NH2 [Example 411]”, the concentration giving a half-maximal response (EC50) turned out to be 1170 nM on human GcgR; 82.1 nM at hGLP-1R [1]; 0.058 nM at hGIPR [2]; 23.8 nM at hGIPR [3]; 3.94 nM on hGcgR; 0.709 nM at hGLP-1R [4].

The record behind these values is patent US20240270821A1, “GIP/GLP1/GCG TRI-RECEPTOR AGONISTS AND USES THEREOF” (priority 2023, published 2024).
